{"source": "patent US5541168A", "about": "“Substituted 2-(phosphinyloxymethyl)-1,2,5-thiadiazolidin-3-one 1,1-dioxides and compositions and method of use thereof” (Sterling Winthrop Inc., priority 1994, dated 1996)", "molecular_target": "T1, human leukocyte elastase (Homo sapiens, UniProt P08246)", "T1 sequence (P08246 30-247 limits assumed)": "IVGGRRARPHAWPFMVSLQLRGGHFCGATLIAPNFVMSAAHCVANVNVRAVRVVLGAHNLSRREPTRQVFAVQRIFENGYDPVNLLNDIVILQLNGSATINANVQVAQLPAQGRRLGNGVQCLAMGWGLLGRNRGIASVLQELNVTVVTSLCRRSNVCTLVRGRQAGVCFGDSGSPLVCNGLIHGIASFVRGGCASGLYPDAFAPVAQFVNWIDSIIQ", "assay": "human leukocyte elastase inhibitory activity (MeOSuc-Ala-Ala-Pro-Val-pNA substrate, absorbance progress curves)", "assay_type": "biochemical", "method": "The test compound (inhibitor) is dissolved in DMSO in a vial to produce an inhibitor stock solution which has a concentration in the range of 200-1000 μM. The inhibitor stock solution is diluted (1:4, 1:16 and 1:64) into assay vials (vials 1, 2 and 3 respectively) containing 2.4 mL of buffer solution (50 mM N-[2-hydroxyethyl]piperazine-N'-[2-ethanesulfonic acid]/NaOH, 500 mM NaCl, pH 7.8 at 25° C.) and DMSO is added so that the total volume in each vial is 3.2 mL. 70 μL, 50 μL, 35 μL and 25 μL of inhibitor from assay vial 1 is placed into the first four wells of a 96-well microtiter plate and each well is made up to 90 μL total volume with the addition of a 25% DMSO/buffer solution. The inhibitor from assay vials 2 and 3 is processed in a similar manner and placed in wells 5-12 respectively to afford a total of 12 different inhibitor concentrations. Four wells (wells 13-16) containing 90 μL of the 25% DMSO/buffer solution but no inhibitor are also run simultaneously with the inhibited wells as a control. 150 μL of substrate solution (prepared by the addition of 500 μL of the human leukocyte elastase (HLE) substrate MeOSuc-Ala-Ala-Pro-Val-pNA (18.7 mM in DMSO) to 19.5 mL of buffer solution) is then added simultaneously into each of the 16 wells and the solution in each well was thoroughly mixed.\nThe 96-well microtiter plate is placed into a Microplate Reader #89815A spectrophotometer and 110 μL of the enzyme solution (prepared as follows: a mixture of 20 mL of buffer solution and 20 mg of bovine serum albumen is gently vortexed in a scintillation vial and 5 μL HLE stock solution (1 mg/mL dissolved in deionized water) is added) is added simultaneously to each of the 16 wells. Each of the solutions in the wells is throughly mixed and then the time-dependent absorbance data is collected at an absorbance of 410 nm until the assay is complete. It should be noted that although this assay method can be done manually, it is preferred to perform the assay robotically using a Hewlett Packard MicroAssay System Robot.\nA plot of the absorbance versus time data thus obtained affords progress curves the final slope of which is equal to the final steady-state velocities (VF). Using the program ENZFITTER (Elsevier software), the progress curves for the four control assays ([I]=0) are fit by linear regression to yield the enzyme reaction velocity values in the absences of inhibitor (Vo) which are averaged to produce a single fixed value. The inhibition constant Ki (nM) is then obtained from a plot of [formula] which affords a linear plot wherein: [formula] and [S] is the concentration of the substrate and Km is the Michaelis constant.\nTable V summarizes the results obtained from the testing of representative compounds of the invention for human leukocyte elastase inhibitory activity.", "note": "Where two headings read alike, the source gives them in different places.", "data": [{"smiles": "CCCC1C(=O)N(COP(=O)(OCC)OCC)S(=O)(=O)N1C", "note": "(centres unmarked) [1(i), 2-(diethoxyphosphinyloxymethyl)-4-propyl-5-methyl-1,2,5-thiadiazolidin-3-one 1,1-dioxide]", "values": [{"measurement": "Ki", "result": 2, "unit": "nM"}]}, {"smiles": "CC(C)CCC1C(=O)N(COP(=O)(OCc2ccccc2)OCc2ccccc2)S(=O)(=O)N1C", "note": "(centres unmarked) [4(j), 2-(dibenzyloxyphosphinyloxymethyl)-4-(3-methylbutyl)-5-methyl-1,2,5-thiadiazolidin-3-one 1,1-dioxide]", "values": [{"measurement": "Ki", "setting": "human leukocyte elastase, substrate MeOSuc-Ala-Ala-Pro-Val-pNA, pH 7.8, 25° C. buffer, read-out: Ki", "result": 1.5, "unit": "nM"}]}, {"smiles": "CCOP(=O)(OCC)OCN1C(=O)C(C(C)C)N(C)S1(=O)=O", "note": "(centres unmarked) [2(i), 2-(diethoxyphosphinyloxymethyl)-4-isopropyl-5-methyl-1,2,5-thiadiazolidin-3-one 1,1-dioxide]", "values": [{"measurement": "Ki", "result": 680, "unit": "nM"}]}, {"smiles": "CCCC1NS(=O)(=O)N(COP(=O)(OCC)OCC)C1=O", "note": "(centres unmarked) [3(f), 2-(diethoxyphosphinyloxymethyl)-4-propyl-1,2,5-thiadiazolidin-3-one 1,1-dioxide]", "values": [{"measurement": "Ki", "result": 25, "unit": "nM"}]}, {"smiles": "CCOP(=O)(OCC)OCN1C(=O)C2CCCCN2S1(=O)=O", "note": "(centres unmarked) [17(f), 2-(diethoxyphosphinyloxymethyl)-1,2,5-thiadiazolo[2,3-a]3,3a,4,5,6,7-hexahydropyridine-3-one 1,1-dioxide]", "values": [{"measurement": "Ki", "result": 500, "unit": "nM"}]}]}
